Results as given in article PMC4154947, “Polyisoprenylated methylated protein methyl esterase as a putative drug target for androgen-insensitive prostate cancer” (ecancermedicalscience, 2014).

Tests used:
[1] = target: T1, Polyisoprenylated methylated protein methyl esterase (PMPMEase; human carboxylesterase 1, hCE1) (Homo sapiens, UniProt P23141); assay: HPLC assay of RD-PNB hydrolysis in prostate cancer cell lysates (PC-3 value); format: biochemical
T1 construct: gene CES1
T1 sequence (P23141 18-567): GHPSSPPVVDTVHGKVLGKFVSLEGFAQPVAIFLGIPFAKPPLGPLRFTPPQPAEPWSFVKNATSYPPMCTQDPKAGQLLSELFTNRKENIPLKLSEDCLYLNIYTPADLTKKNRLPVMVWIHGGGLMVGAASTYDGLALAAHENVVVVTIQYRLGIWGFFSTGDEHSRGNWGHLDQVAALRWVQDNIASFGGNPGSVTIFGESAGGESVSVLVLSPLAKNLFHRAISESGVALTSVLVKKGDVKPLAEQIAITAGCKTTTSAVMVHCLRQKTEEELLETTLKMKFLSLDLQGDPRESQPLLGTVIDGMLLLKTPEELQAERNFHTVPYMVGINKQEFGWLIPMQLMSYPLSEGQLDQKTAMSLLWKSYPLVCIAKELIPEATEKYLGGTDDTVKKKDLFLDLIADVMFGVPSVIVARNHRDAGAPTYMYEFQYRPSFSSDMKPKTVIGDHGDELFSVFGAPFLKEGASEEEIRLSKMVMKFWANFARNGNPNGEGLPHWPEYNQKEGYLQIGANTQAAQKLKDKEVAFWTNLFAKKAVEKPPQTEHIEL

[2] = target: T1, Polyisoprenylated methylated protein methyl esterase (PMPMEase; human carboxylesterase 1, hCE1); assay: HPLC-UV detection of substrate hydrolysis by prostate cell lysates; format: cell-based

Structure (SMILES)	IC50 [1] [µM]	HPLC-UV detection of substrate hydrolysis by prostate cell lysates [2]
CC(C)=CCC/C(C)=C/CC/C(C)=C/CSCCS(=O)(=O)F [L-28, 2-trans, trans-farnesylthioethanesulfonyl fluoride]	3	–
COC(=O)[C@H](CSC/C=C(\C)CC/C=C(\C)CCC=C(C)C)NC(=O)c1ccc([N+](=O)[O-])cc1 [RD-PNB, N-(4-nitrobenzoyl)-S-trans, trans-farnesyl-L-cysteine methyl ester]	–	Incubation of the specific PMPMEase substrate, RD-PNB, with lysates from the respective cell lines resulted in the hydrolysis
